Test results: ChEMBL document CHEMBL4350974, “Synthesis and biological evaluation of methylpyrimidine-fused tricyclic diterpene analogs as novel oral anti-late-onset hypogonadism agents” (Eur J Med Chem, 2019)
Activity calls are given as the source filed them. The rule behind the calls is not given here.

Legend:
Rattus norvegicus [1] = test: Anti late-onset hypogonadism activity in cyclophosphamide-induced Sprague-Dawley rat model of partial androgen deficiency assessed as weight of testis at 50 mg/kg, po qd administered for 4 weeks (reference value: 1.47 +/- 0.13 g); type: functional
Rattus norvegicus [2] = test: Anti late-onset hypogonadism activity in cyclophosphamide-induced Sprague-Dawley rat model of partial androgen deficiency assessed as increase in LC3 expression at 50 to 100 mg/kg by immunohistochemical analysis; type: functional, organism-based
[3] = Cytotoxicity against mouse TM3 cells assessed as reduction in cell viability measured after 24 hrs by sulforhodamine B assay; type: cell-based
[4] = Oral bioavailability in Sprague-Dawley rat at 50 mg/kg by LC/MS analysis; type: ADME, organism-based; details: in vivo
[5] = Clearance in Sprague-Dawley rat at 50 mg/kg, po up to 12 hrs by LC/MS analysis; type: ADME, organism-based; details: in vivo
Rattus norvegicus [6] = test: Anti late-onset hypogonadism activity in cyclophosphamide-induced Sprague-Dawley rat model of partial androgen deficiency assessed as intratesticular testosterone level at 100 mg/kg, po qd administered for 4 weeks by ELISA (reference value: 137.99 +/- 19.27 nmol/L); type: functional
Rattus norvegicus [7] = test: Anti late-onset hypogonadism activity in cyclophosphamide-induced Sprague-Dawley rat model of partial androgen deficiency assessed as increase in StAR mRNA level at 50 to 100 mg/kg by RT-PCR analysis; type: functional, organism-based
[8] = AUC (0 to t) in Sprague-Dawley rat plasma at 5 mg/kg, iv up to 5 hrs by LC/MS analysis; type: ADME, organism-based; parameters: time < 5 hr, dose 5 mg/kg, route intravenous
[9] = Cytotoxicity against mouse NIH/3T3 cells assessed as reduction in cell viability measured after 24 hrs by sulforhodamine B assay; type: cell-based, NIH3T3
[10] = Half-life in Sprague-Dawley rat plasma at 50 mg/kg, po up to 12 hrs by LC/MS analysis; type: ADME, organism-based
[11] = Volume of distribution in Sprague-Dawley rat plasma at 50 mg/kg, po up to 12 hrs by LC/MS analysis; type: ADME, organism-based; details: in vivo
[12] = Cytotoxicity against human NCM460 cells assessed as reduction in cell viability measured after 24 hrs by sulforhodamine B assay; type: cell-based
[13] = Mean residence time in Sprague-Dawley rat at 50 mg/kg, po by LC/MS analysis; type: ADME, organism-based; details: in vivo
TM3 [14] = test: Induction of testosterone production in mouse TM3 cells assessed as increase in StAR protein expression level after 24 hrs by Western blot analysis; type: functional, cell-based
[15] = Toxicity in cyclophosphamide - induced Sprague-Dawley rat model of partial androgen deficiency assessed as effect on lung at 50 to 100 mg/kg by HE staining based histopathological analysis; type: organism-based; details: in vivo
TM3 [16] = test: Induction of autophagy in mouse TM3 cells assessed as increase in ATG5 protein level at 10 to 100 uM by Western blot analysis; type: functional, cell-based
[17] = Toxicity in cyclophosphamide - induced Sprague-Dawley rat model of partial androgen deficiency assessed as effect on liver at 50 to 100 mg/kg by HE staining based histopathological analysis; type: organism-based; details: in vivo
Rattus norvegicus [18] = test: Anti late-onset hypogonadism activity in cyclophosphamide-induced Sprague-Dawley rat model of partial androgen deficiency assessed as increase in free testosterone level at 50 to 100 mg/kg, po qd administered for 4 weeks and measured every 2 weeks by ELISA; type: functional, organism-based
TM3 [19] = test: Induction of testosterone production in mouse TM3 cells assessed as increase in StAR mRNA expression level after 24 hrs by qRT-PCR analysis; type: functional, cell-based
[20] = AUC (0 to infinity) in Sprague-Dawley rat plasma at 5 mg/kg, iv by LC/MS analysis; type: ADME, organism-based; parameters: dose 5 mg/kg, route intravenous, time infinity
TM3 [21] = test: Induction of autophagy in mouse TM3 cells assessed as increase in LC3-II protein level at 10 to 100 uM by Western blot analysis; type: functional, cell-based
[22] = Toxicity in cyclophosphamide - induced Sprague-Dawley rat model of partial androgen deficiency assessed as swelling of seminiferous tubules at 50 to 100 mg/kg by HE staining based histopathological analysis; type: organism-based; details: in vivo
Rattus norvegicus [23] = test: Anti late-onset hypogonadism activity in cyclophosphamide-induced Sprague-Dawley rat model of partial androgen deficiency assessed as weight of testis at 100 mg/kg, po qd administered for 4 weeks (reference value: 1.47 +/- 0.13 g); type: functional
TM3 [24] = test: Induction of testosterone production in mouse TM3 cells assessed as increase in testosterone level at 20 uM measured after 24 hrs by ELISA relative to control; type: functional
TM3 [25] = test: Induction of autophagy in mouse TM3 cells assessed as increase in LC3-II/LC3-I ratio at 10 to 100 uM after 24 hrs by Western blot analysis; type: functional, cell-based
Rattus norvegicus [26] = test: Anti late-onset hypogonadism activity in cyclophosphamide-induced Sprague-Dawley rat model of partial androgen deficiency assessed as increase in 3 beta- HSD mRNA level at 100 mg/kg by RT-PCR analysis; type: functional, organism-based
Rattus norvegicus [27] = test: Anti late-onset hypogonadism activity in cyclophosphamide-induced Sprague-Dawley rat model of partial androgen deficiency assessed as weight of seminal vesicles at 50 mg/kg, po qd administered for 4 weeks (reference value: 1.33 +/- 0.26 g); type: functional
[28] = Toxicity in cyclophosphamide-induced Sprague-Dawley rat model of partial androgen deficiency assessed as decrease in body weight at 50 to 100 mg/kg, po qd administered for 4 weeks and measured every 3 days; type: organism-based; details: in vivo
[29] = Toxicity in cyclophosphamide - induced Sprague-Dawley rat model of partial androgen deficiency assessed as effect on Sertoli cells arrangement at 50 to 100 mg/kg by HE staining based histopathological analysis; type: organism-based; details: in vivo
[30] = Toxicity in cyclophosphamide - induced Sprague-Dawley rat model of partial androgen deficiency assessed as effect on spleen at 50 to 100 mg/kg by HE staining based histopathological analysis; type: organism-based; details: in vivo
[31] = Toxicity in cyclophosphamide - induced Sprague-Dawley rat model of partial androgen deficiency assessed as sperm viability at 100 mg/kg by semen analysis (reference value: 95.1 +/- 3.2 %); type: organism-based; details: in vivo
[32] = Mean residence time in Sprague-Dawley rat at 5 mg/kg, iv by LC/MS analysis; type: ADME, organism-based; details: in vivo
Rattus norvegicus [33] = test: Effect on sperm production in cyclophosphamide - induced Sprague-Dawley rat model of partial androgen deficiency assessed as increase in SYCP3 protein expression at 50 to 100 mg/kg by immunohistochemical analysis; type: functional, organism-based
[34] = Volume of distribution in Sprague-Dawley rat plasma at 5 mg/kg, iv up to 5 hrs by LC/MS analysis; type: ADME, organism-based
Rattus norvegicus [35] = test: Anti late-onset hypogonadism activity in cyclophosphamide-induced Sprague-Dawley rat model of partial androgen deficiency assessed as intratesticular testosterone level at 50 mg/kg, po qd administered for 4 weeks by ELISA (reference value: 137.99 +/- 19.27 nmol/L); type: functional
Rattus norvegicus [36] = species on record: Rattus norvegicus; test: Anti late-onset hypogonadism activity in cyclophosphamide-induced Sprague-Dawley rat model of partial androgen deficiency assessed as induction of autophagy in Leydig cells immunohistochemical analysis; type: functional, organism-based
[37] = Toxicity in cyclophosphamide - induced Sprague-Dawley rat model of partial androgen deficiency assessed as effect on kidney at 50 to 100 mg/kg by HE staining based histopathological analysis; type: organism-based; details: in vivo

bioavailability [4]: 57%
CL/F [5]: 270 mL/min/kg
AUC(0-t) at 5 h [8]: 453 ng·h/mL
half-life [10]: 4.44 h
Vd [11]: 106.27 L/kg
MRT [13]: 7.76 h
AUC(0-inf) [20]: 551 ng·h/mL
MRT [32]: 9.92 h
Vd [34]: 103 L/kg
SMILES: CNC(=O)c1cc2c(cc1OC)[C@@]1(C)Cc3cnc(C)nc3C(C)(C)C1CC2 (mixture of isomers)
Activity (Rattus norvegicus [1]): 1.54 g
Activity (Rattus norvegicus [2]): Active
CC50 at 24 h [3]: > 200 µM
Activity (Rattus norvegicus [6]): 185.58 nmol/L
Activity (Rattus norvegicus [7]): Active
CC50 at 24 h [9]: > 200 µM
CC50 at 24 h [12]: > 200 µM
Activity (TM3 [14]): Dose-dependent effect
Activity [15]: Non-Toxic
Activity (TM3 [16]): Active
Activity [17]: Non-Toxic
Activity (Rattus norvegicus [18]): Active
Activity (TM3 [19]): Dose-dependent effect
Activity (TM3 [21]): Active
Activity [22]: Toxic
Activity (Rattus norvegicus [23]): 1.66 g
Activity (TM3 [24]): 174.6%
Activity (TM3 [25]): Active
Activity (Rattus norvegicus [26]): Active
Activity (Rattus norvegicus [27]): 1.53 g
Activity [28]: Non-Toxic
Activity [29]: Toxic
Activity [30]: Non-Toxic
Activity [31]: 98%
Activity (Rattus norvegicus [33]): Active
Activity (Rattus norvegicus [35]): 180.24 nmol/L
Activity (Rattus norvegicus [36]): Active
Activity [37]: Non-Toxic
